Assay [1] addresses T1, human δ receptors (Homo sapiens, UniProt P41143).
T1 construct: expressed in transfected cells
The experiment in a line: GTP[γ]35S binding functional assay, HEK-293S membranes expressing cloned human δ receptors. The format is biochemical. To be noted: for Emax: relative to standard δ agonist SNC80. On the procedure:
(§1) The agonist activity of the compounds is measured by determining the degree to which the compounds receptor complex activates the binding of GTP to G-proteins to which the receptors are coupled. In the GTP binding assay, GTP[γ]^35S is combined with test compounds and membranes from HEK-293S cells expressing the cloned human opioid receptors or from homogenised rat or mouse brain. Agonists stimulate GTP[γ]^35S binding in these membranes. The EC50 and Emax values of compounds are determined from dose-response curves. Right shifts of the dose response curve by the delta antagonist naltrindole are performed to verify that agonist activity is mediated through delta receptors. For human δ receptor functional assays, EC50 (low) is measured when the human δ receptors used in the assay were expressed at lower levels in comparison with those used in determining EC50 (high). The Emax values were determined in relation to the standard δ agonist SNC80, i.e., higher than 100% is a compound that have better efficacy than SNC80.
(§2) Rat brain membranes are thawed at 37° C., passed 3 times through a 25-gauge blunt-end needle and diluted in the GTPγS binding (50 mM Hepes, 20 mM NaOH, 100 mM NaCl, 1 mM EDTA, 5 mM MgCl2, pH 7.4, Add fresh: 1 mM DTT, 0.1% BSA). 120 μM GDP final is added membranes dilutions. The EC50 and Emax of compounds are evaluated from 10-point dose-response curves done in 300 μl with the appropriate amount of membrane protein (20 μg/well) and 100000-130000 dpm of GTPγ^35S per well (0.11-0.14 nM). The basal and maximal stimulated binding are determined in absence and presence of 3 μM SNC-80. The assay performed on HEK 293s cells stably expressing cloned Delta receptors is done in a slightly different buffer (50 mM Hepes, 20 mM NaOH, 200 mM NaCl, 1 mM EDTA, 5 mM MgCl2, pH 7.4, Add fresh: 0.5% BSA, no DTT) and with a 3 μM final conc. of GDP.

Assay [2] has as its target T1, human δ receptors. Kind of assay: Binding assay, cloned human δ receptor membranes (125I-Deltorphin II displacement).
For the next assay, the target named is T2, human κ receptors (Homo sapiens, UniProt P41145).
T2 construct: expressed in transfected cells; host or cells: human 293S cells, geneticin-selected
T2 sequence (P41145 whole entry): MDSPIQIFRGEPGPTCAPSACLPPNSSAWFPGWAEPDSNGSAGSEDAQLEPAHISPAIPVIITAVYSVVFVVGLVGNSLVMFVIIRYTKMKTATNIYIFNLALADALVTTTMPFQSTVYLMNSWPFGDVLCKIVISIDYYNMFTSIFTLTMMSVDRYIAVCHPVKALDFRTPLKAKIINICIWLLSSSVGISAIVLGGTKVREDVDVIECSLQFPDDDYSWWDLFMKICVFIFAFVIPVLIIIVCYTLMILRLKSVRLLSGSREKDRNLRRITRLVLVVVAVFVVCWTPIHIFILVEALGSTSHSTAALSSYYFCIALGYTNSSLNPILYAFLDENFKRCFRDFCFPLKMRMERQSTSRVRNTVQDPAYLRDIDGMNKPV
Kind of assay: Binding assay, cloned human κ receptor membranes (125I-DPDYN displacement).

The target of another assay is T3, human μ receptors (Homo sapiens, UniProt P35372).
T3 construct: expressed in transfected cells; host or cells: human 293S cells, geneticin-selected
T3 sequence (P35372 whole entry): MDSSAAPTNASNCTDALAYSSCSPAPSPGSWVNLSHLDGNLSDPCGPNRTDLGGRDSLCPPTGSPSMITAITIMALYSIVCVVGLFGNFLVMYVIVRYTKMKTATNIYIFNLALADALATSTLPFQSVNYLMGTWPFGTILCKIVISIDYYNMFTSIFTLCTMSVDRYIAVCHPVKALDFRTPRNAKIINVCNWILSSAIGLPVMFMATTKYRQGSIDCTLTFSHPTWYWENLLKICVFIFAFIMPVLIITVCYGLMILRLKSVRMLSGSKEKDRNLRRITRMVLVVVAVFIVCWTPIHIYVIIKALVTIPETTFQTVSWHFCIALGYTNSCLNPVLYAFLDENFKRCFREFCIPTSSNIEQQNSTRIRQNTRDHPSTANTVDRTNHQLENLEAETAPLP
The experiment in a line: Binding assay, cloned human μ receptor membranes (125I-FK33824 displacement).

The target of assay [3] is T4, δ receptors in rat brain membranes (Rattus norvegicus, UniProt P33533).
T4 construct: membranes from HEK-293S cells expressing the cloned human opioid receptors or from homogenised rat or mouse brain; from tissue; host or cells: rat brain homogenate membranes
T4 sequence (P33533 whole entry): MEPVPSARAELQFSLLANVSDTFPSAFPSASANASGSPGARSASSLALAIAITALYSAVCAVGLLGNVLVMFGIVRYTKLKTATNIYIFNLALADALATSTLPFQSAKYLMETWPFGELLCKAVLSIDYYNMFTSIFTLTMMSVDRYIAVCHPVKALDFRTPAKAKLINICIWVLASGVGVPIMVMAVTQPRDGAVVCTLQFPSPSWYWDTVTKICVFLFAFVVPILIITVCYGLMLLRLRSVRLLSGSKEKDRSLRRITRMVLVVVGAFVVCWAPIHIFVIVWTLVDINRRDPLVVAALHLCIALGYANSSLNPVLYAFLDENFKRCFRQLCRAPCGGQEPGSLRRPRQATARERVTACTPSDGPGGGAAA
Kind of assay: Rat brain GTP[γ]35S binding functional assay. The format is biochemical. Conditions: for Emax: Table 1, rat brain membranes, relative to SNC80. As for the experimental part: Rat brains are weighed and rinsed in ice-cold PBS (containing 2.5 mM EDTA, pH 7.4). The brains are homogenized with a polytron for 30 sec (rat) in ice-cold lysis buffer (50 mM Tris, pH 7.0, 2.5 mM EDTA, with phenylmethylsulfonyl fluoride added just prior use to […] from a 0.5M stock in DMSO:ethanol).
as §1, §2
For orientation: GTPγS is a poorly hydrolysed GTP analogue; its binding reports G protein activation.

[4] abbreviates: Table 2, lower receptor expression, read-out: Human δ % EMax (low).
[5] abbreviates: Table 2, read-out: Human κ IC50.
Where [6] appears, read: Table 1, higher receptor expression, read-out: Human δ % EMax (high).

Where two headings read alike, the source gives them in different places.

T1 sequence (P41143 whole entry): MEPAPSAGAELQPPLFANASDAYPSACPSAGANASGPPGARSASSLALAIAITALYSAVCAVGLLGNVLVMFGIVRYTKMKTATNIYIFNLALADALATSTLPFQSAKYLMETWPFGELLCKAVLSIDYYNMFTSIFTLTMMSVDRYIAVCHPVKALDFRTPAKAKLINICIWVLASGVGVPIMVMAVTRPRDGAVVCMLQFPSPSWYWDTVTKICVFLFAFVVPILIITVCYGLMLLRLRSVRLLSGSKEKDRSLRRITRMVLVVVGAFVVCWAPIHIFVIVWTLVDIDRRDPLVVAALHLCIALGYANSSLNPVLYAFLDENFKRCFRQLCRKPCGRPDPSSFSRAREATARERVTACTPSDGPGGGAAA

Regarding `CCN(CC)C(=O)c1ccc(C(=C2CCN(Cc3cccs3)CC2)c2cccc(NC(C)=O)c2)cc1` [Compound 1, 4-{[3-(acetylamino)phenyl][1-(thien-2-ylmethyl)piperidin-4-ylidene]methyl}-N,N-diethylbenzamide], the Emax (as a rule, the size of the effect at its maximum, as opposed to the concentration needed) at human δ receptors [1] (setting [4]) lay within 80 to 112%. The half-maximal inhibitory concentration (IC50) – broadly, the concentration needed to halve the response being measured – at human δ receptors [2] is 0.19 to 1.49 nM; on human κ receptors (setting [5]) it was 5830 to 9070 nM.
For `CCN(CC)C(=O)c1ccc(C(=C2CCN(Cc3ccco3)CC2)c2cccc(NC(C)=O)c2)cc1` [Compound 2, 4-{[3-(acetylamino)phenyl][1-(2-furylmethyl)piperidin-4-ylidene]methyl}-N,N-diethylbenzamide] the same measures were 80 to 112%, 0.19 to 1.49 nM and 5830 to 9070 nM.
As for `CCN(CC)C(=O)c1ccc(C(=C2CCN(Cc3ccccc3)CC2)c2cccc(NC(C)=O)c2)cc1` [Compound 3, 4-[[3-(acetylamino)phenyl][1-(phenylmethyl)-4-piperidinylidene]methyl]-N,N-diethyl-benzamide], the concentration for half-maximal inhibition (IC50) is 344 to 368 nM at human μ receptors, 0.34 to 0.59 nM on human δ receptors [2] and 2470 to 8000 nM at human κ receptors. Also, the EC50 (in general, the concentration at which the effect is half-maximal) is 1.46 to 2.65 nM on human δ receptors [1] and 7.2 to 15.8 nM in assay [3]. Further, the maximal response (Emax) on human δ receptors [1] (setting [6]) lay within 95 to 98%; in assay [3], 126 to 137%.
As for `CCN(CC)C(=O)c1ccc(C(=C2CCN(Cc3ccsc3)CC2)c2cccc(NC(C)=O)c2)cc1` [Compound 4, 4-[[3-(acetylamino)phenyl][1-(3-thienylmethyl)-4-piperidinylidene]methyl]-N,N-diethyl-benzamide], the IC50 was in the range of 344 to 368 nM at human μ receptors, 0.34 to 0.59 nM on human δ receptors [2] and 2470 to 8000 nM at human κ receptors. Besides, the EC50 on human δ receptors [1] lay in the range of 1.46 to 2.65 nM; in assay [3] it was 7.2 to 15.8 nM. Moreover, the results for the Emax (at human δ receptors [1] (setting [6]); in assay [3]) were 95 to 98% and 126 to 137%, respectively.
As to `CCN(CC)C(=O)c1ccc(C(=C2CCN(Cc3cccnc3)CC2)c2cccc(NC(C)=O)c2)cc1` [Compound 5, 4-[[3-(acetylamino)phenyl][1-(3-pyridinylmethyl)-4-piperidinylidene]methyl]-N,N-diethyl-benzamide], the Emax on human δ receptors [1] (setting [4]) fell in the range of 80 to 112%. The IC50 at human δ receptors [2] was in the range of 0.19 to 1.49 nM; on human κ receptors, 5830 to 9070 nM.
For `CCN(CC)C(=O)c1ccc(C(=C2CCN(Cc3ccncc3)CC2)c2cccc(NC(C)=O)c2)cc1` [Compound 6, 4-[[-3-(acetylamino)phenyl][1-(4-pyridinylmethyl)-4-piperidinylidene]methyl]-N,N-diethyl-benzamide] the same measures were 80 to 112%, 0.19 to 1.49 nM and 5830 to 9070 nM.
Turning to `CCN(CC)C(=O)c1ccc(C(=C2CCN(Cc3ccccn3)CC2)c2cccc(NC(C)=O)c2)cc1` [Compound 7, 4-{[3-(acetylamino)phenyl][1-(pyridin-2-ylmethyl)piperidin-4-ylidene]methyl}-N,N-diethylbenzamide], the Emax at human δ receptors [1] (setting [4]) was in the range of 80 to 112%. The figures for the IC50 at human δ receptors [2] and at human κ receptors (setting [5]) were 0.19 to 1.49 nM and 5830 to 9070 nM, respectively.
On the same counts, the results for `CCN(CC)C(=O)c1ccc(C(=C2CCN(Cc3cscn3)CC2)c2cccc(NC(C)=O)c2)cc1` [Compound 8, 4-{[3-(acetylamino)phenyl][1-(1,3-thiazol-4-ylmethel)piperidin-4-ylidene]methyl}-N,N-diethylbenzamide] are 80 to 112%, 0.19 to 1.49 nM and 5830 to 9070 nM.
For `CCN(CC)C(=O)c1ccc(C(=C2CCN(Cc3cncs3)CC2)c2cccc(NC(C)=O)c2)cc1` [Compound 9, 4-{[3-(acetylamino)phenyl][1-(1,3-thiazol-5-ylmethyl)piperidin-4-ylidene]methyl}-N,N-diethylbenzamide], the Emax on human δ receptors [1] (setting [4]) lay within 80 to 112%. Besides, the IC50 fell in the range of 0.19 to 1.49 nM on human δ receptors [2] and 5830 to 9070 nM on human κ receptors (setting [5]).

For the origin of these results see patent US20060154964A1, “Diarylmethylidene piperidine derivatives, preparations thereof and uses thereof” (AstraZeneca AB, priority 2003, published 2006).
